The results in this text go back to the RepoRT retention time repository.

The nature of the series: A: acetonitrile + 0.1% formic acid + 10 mM ammonium formate; B: 5% water + 95% acetonitrile + 0.1% formic acid + 10 mM ammonium formate; gradient (min/%B) 0/10 2/10 22/100 27/100 27.1/10. The following applies: stereoisomer not certain.

For `CC(=O)C1(O)CCC2C3CCC4=CC(=O)CCC4(C)C3CCC21C` (stereo not drawn) [17-alpha-Hydroxyprogesterone], the LC retention time was determined as 0.437 min.

Regarding `NCC(CC(=O)O)c1ccc(Cl)cc1` (stereo unspecified) [Baclofen], the LC retention time is 4.14 min.

For the compound `CC(=O)OCC(=O)C12OC3(CCCC3)OC1CC1C3CCC4=CC(=O)C=CC4(C)C3(F)C(O)CC12C` (stereo unspecified) [Amcinonide], the LC retention time was determined as 0.433 min.

As to `CC(C)[C@H](NC(=O)CN)C(=O)O` [Glycyl-L-valine], the LC retention time is 6.02 min.

In the case of `CNCCC(Oc1ccc(C(F)(F)F)cc1)c1ccccc1` (stereo unspecified) [Fluoxetine], the LC retention time came to 0.978 min.

Turning to `CC(=O)N1CCC[C@H]1C(=O)O` [N-Acetyl-L-Proline], the LC retention time was found to be 4.98 min.

Regarding `CC(C)OC(=O)C(C)(C)Oc1ccc(C(=O)c2ccc(Cl)cc2)cc1` [Fenofibrate], the LC retention time came out at 0.401 min.

Take `CC(CN1c2ccccc2Sc2ccccc21)N(C)C` (stereo unspecified) [Promethazine]: the LC retention time amounted to 0.952 min.

On to `CC(=O)C1=CCC2C3CCC4=CC(=O)CCC4(C)C3CCC12C` (stereo unspecified) [16-Dehydroprogesterone], for which the LC retention time came to 0.423 min.

With `NC(=O)NC(CC(=O)O)C(=O)O` (stereo unspecified) [Ureidosuccinic acid], the LC retention time was found to be 5.96 min.

On to `CC12CCC(=O)C=C1C=CC1C2CCC2(C)C1CCC21CCC(=O)O1` (stereo unspecified) [Canrenone], for which the LC retention time was found to be 0.429 min.

Regarding `O=c1[nH]cnc2c1ncn2C1OC(CO)C(O)C1O` (stereo unspecified) [Inosine], the LC retention time turned out to be 3.94 min.

For the compound `NC(Cc1cccc(O)c1)C(=O)O` (racemic) [DL-m-Tyrosine], the LC retention time was 5.38 min.

`NC1(C(=O)O)CC1` [1-Aminocyclopropanecarboxylic acid]: the LC retention time stood at 6.03 min.

Regarding `NCCCCN=C(N)N` [Agmatine], the LC retention time was determined as 6.99 min.

Consider `CC(C)NCC(O)COc1ccc(CC(N)=O)cc1` (stereo unspecified) [Atenolol], for which the LC retention time turned out to be 3.34 min.

Turning to `C[S+](CC[C@H](N)C(=O)[O-])C[C@H]1O[C@@H](n2cnc3c(N)ncnc32)[C@H](O)[C@@H]1O` (stereo partly drawn) [S-(5'-Adenosyl)-L-methionine], the LC retention time came out at 8.08 min.

As for `C=C1CCC(O)CC1=CC=C1CCCC2(C)C1CCC2C(C)CCCC(C)C` (stereo unspecified) [Vitamin D3], the LC retention time stood at 0.407 min.

Regarding `NC(N)=NCCCC(=O)O` [4-Guanidinobutyric acid], the LC retention time came out at 5.73 min.

For `CC12CCC(=O)C=C1CCC1C2C(O)CC2(C)C(C(=O)CO)CCC12` (stereo unspecified) [Corticosterone], the LC retention time is 0.472 min.

Turning to `COc1cc(CCN)ccc1O` [3-Methoxytyramine], the LC retention time was found to be 2.92 min.

Turning to `NCCc1c[nH]c2ccccc12` [Tryptamine], the LC retention time turned out to be 2.25 min.

As to `O=C(C=Cc1ccc(O)c(O)c1)OC1CC(O)(C(=O)O)CC(O)C1O` (stereo unspecified) [Chlorogenic acid], the LC retention time is 4.76 min.

For the compound `CCN(CC)CCCC(C)Nc1c2ccc(Cl)cc2nc2ccc(OC)cc12` (stereo unspecified) [Quinacrine], the LC retention time came to 3.99 min.

For `CC(=O)N[C@@H](Cc1ccccc1)C(=O)O` [N-Acetyl-L-phenylalanine], the LC retention time came to 1.32 min.

Consider `CC(C)=CCCC(C)CC=O` (single isomer, unassigned; (-)) [(-)-Citronellal], for which the LC retention time was found to be 0.405 min.

With `Nc1ccc(O)cc1` [4-Aminophenol], the LC retention time came out at 0.517 min.

For the compound `CNC(=O)c1cccnc1` [N'-Methylnicotinamide], the LC retention time came out at 0.564 min.

For `NCC(O)c1ccccc1` (stereo unspecified) [2-Amino-1-phenylethanol], the LC retention time amounted to 2.92 min.

Regarding `O=c1[nH]c(=O)c2ncn(C3OC(CO)C(O)C3O)c2[nH]1` (stereo unspecified) [Xanthosine], the LC retention time was found to be 5.1 min.

Consider `CC=CC=CC(=O)O` [Sorbic acid], for which the LC retention time was found to be 0.486 min.

Take `CCCCOC(=O)CCCCCCCCC(=O)OCCCC` [Dibutyl sebacate]: the LC retention time was determined as 0.404 min.

As to `CC(C)CC(=O)NCC(=O)O` [N-Iso valerylglycine], the LC retention time stood at 1.63 min.

For the compound `CC(=O)C1CCC2C3CCC4=CC(=O)CCC4(C)C3CCC12C` (stereo unspecified) [Progesterone], the LC retention time amounted to 0.425 min.

With `O=c1[nH]c(=O)n(C2CC(O)C(CO)O2)cc1I` (single isomer, unassigned; (+)) [(+)-5-Iodo-2'-deoxyuridine], the LC retention time came to 0.729 min.

Consider `COc1cc(CC(=O)O)ccc1O` [4-Hydroxy-3-methoxyphenylacetic Acid], for which the LC retention time stood at 0.535 min.

For the compound `CCCCCCCCCCCCOC(=O)c1cc(O)c(O)c(O)c1` [Lauryl gallate], the LC retention time is 0.455 min.

For the compound `OCC(O)C(O)C(O)CO` (stereo unspecified) [Xylitol], the LC retention time was found to be 5.38 min.

Regarding `Nc1ccc(C(=O)O)c(O)c1` [4-Aminosalicylic Acid], the LC retention time was found to be 0.675 min.

As to `N[C@@H](Cc1c[nH]c2ccc(O)cc12)C(=O)O` [L-5-Hydroxytryptophan], the LC retention time stood at 5.36 min.

As for `NCCCC(N)C(=O)O` (stereo unspecified) [Ornithine], the LC retention time turned out to be 7.71 min.

Consider `OCCc1c[nH]c2ccccc12` [Indole-3-ethanol], for which the LC retention time amounted to 1.31 min.

In the case of `CC1CNC(=O)NC1=O` (stereo unspecified) [5,6-Dihydro Thymine], the LC retention time came to 0.621 min.

As to `O=C(O)CN(CCN(CC(=O)O)CC(=O)O)CC(=O)O` [Ethylenediaminetetraacetic acid], the LC retention time was determined as 6.91 min.

On to `CC(=O)N[C@@H](CCCN)C(=O)O` [N-Acetyl-L-ornithine], for which the LC retention time turned out to be 6.58 min.

Take `O=C(O)C(c1ccccc1)C1CCCCN1` (stereo unspecified) [Ritalinic Acid]: the LC retention time worked out at 3.41 min.

As for `NCCCCC(NC(CCc1ccccc1)C(=O)O)C(=O)N1CCCC1C(=O)O` (stereo unspecified) [Lisinopril], the LC retention time was found to be 6.87 min.

For the compound `CC1(C)SC2C(NC(=O)C(N)c3ccccc3)C(=O)N2C1C(=O)O` (stereo unspecified) [Ampicillin], the LC retention time was found to be 4.86 min.

Take `CC(=O)NC(CO)C(=O)O` (racemic) [N-Acetyl-DL-serine]: the LC retention time amounted to 5.82 min.

On to `Cc1cc2nc3c(=O)[nH]c(=O)nc-3n(CC(O)C(O)C(O)COP(=O)(O)OP(=O)(O)OCC3OC(n4cnc5c(N)ncnc54)C(O)C3O)c2cc1C` (stereo unspecified) [Flavin Adenine Dinucleotide], for which the LC retention time was 7.38 min.

Consider `c1ncc2[nH]cnc2n1` [Purine], for which the LC retention time was found to be 1.01 min.

As to `CC(=O)CC(=O)CCC(=O)O` [4,6-Dioxoheptanoic acid], the LC retention time came out at 0.575 min.

As for `Cc1ccccc1C(=O)NCC(=O)O` [2-Methylhippuric acid], the LC retention time came out at 3.28 min.

With `CCCCCCCCCCCCCCCC(=O)OCC(COP(=O)(O)O)OC(=O)CCCCCCCCCCCCCCC` (stereo unspecified) [1,2-Dipalmitoyl-sn-glycero-3-phosphate], the LC retention time stood at 2.45 min.

With `CN1CCCC1c1cccnc1` [L-Nicotine], the LC retention time was determined as 3.88 min.

On to `Cc1ncc(CO)c(C=O)c1O` [Pyridoxal], for which the LC retention time was 0.981 min.

Regarding `COc1cc(OC)cc(OC)c1` [1,3,5-Trimethoxybenzene], the LC retention time was found to be 0.423 min.

Turning to `Nc1ccn(C2OC(CO)C(O)C2O)c(=O)n1` (stereo unspecified) [Cytidine], the LC retention time came to 4.73 min.

Turning to `Nc1ncnc2nc[nH]c12` [Adenine], the LC retention time worked out at 2 min.

As to `COc1ccc2c(c1)C(=O)N(CCc1ccc(S(=O)(=O)NC(=O)NC3CCCCC3)cc1)C(=O)C2(C)C` [Gliquidone], the LC retention time stood at 0.417 min.

As for `CCOC(=O)c1cncn1C(C)c1ccccc1` (stereo unspecified) [Etomidate], the LC retention time came to 0.602 min.

Regarding `O=C(O)CNC(=O)c1cccc(O)c1` [m-Hydroxyhippuric Acid], the LC retention time stood at 3.46 min.

Take `CN(C)CCCN1c2ccccc2CCc2ccccc21` [Imipramine]: the LC retention time is 0.939 min.

Take `NS(=O)(=O)c1cc(C(=O)O)c(NCc2ccco2)cc1Cl` [Furosemide]: the LC retention time was 0.586 min.

For the compound `CCCCCCC(N)C(=O)O` (stereo unspecified) [2-Aminooctanoic acid], the LC retention time stood at 4.11 min.

For `N#CC(OC1OC(COC2OC(CO)C(O)C(O)C2O)C(O)C(O)C1O)c1ccccc1` (stereo unspecified) [Amygdalin], the LC retention time amounted to 4.24 min.

Regarding `COc1ccc(C2CC(=O)c3c(O)cc(OC4OC(COC5OC(C)C(O)C(O)C5O)C(O)C(O)C4O)cc3O2)cc1O` (stereo unspecified) [Hesperidin], the LC retention time came to 2.97 min.

For `CCCCCCCC(=O)NCC(=O)O` [Capryloyl glycine], the LC retention time came to 0.943 min.

With `CC(=O)Nc1nnc(S(N)(=O)=O)s1` [Acetazolamide], the LC retention time was found to be 0.529 min.

`O=P(O)(O)OCC1OC(O)C(O)C1O` [D-Ribose 5-phosphate]: the LC retention time stood at 7.12 min.

Consider `COC(=O)C1C2CC3c4[nH]c5cc(OC)ccc5c4CCN3CC2CC(OC(=O)c2cc(OC)c(OC)c(OC)c2)C1OC` (stereo unspecified) [Reserpine], for which the LC retention time is 0.769 min.

On to `O=c1c(-c2ccc(O)cc2)coc2cc(O)cc(O)c12` [Genistein], for which the LC retention time stood at 0.458 min.

Consider `COc1ccc(-c2coc3cc(O)cc(O)c3c2=O)cc1` [Biochanin A], for which the LC retention time came out at 0.424 min.

Turning to `NC(=O)NCCCC[C@H](N)C(=O)O` [L-Homocitrulline], the LC retention time came out at 6.59 min.

For `CC(=CC(=O)O)C(=O)O` [Citraconic acid], the LC retention time was 0.78 min.

Take `COc1cc(C=CC(=O)O)cc(OC)c1OC` [3,4,5-Trimethoxycinnamic acid]: the LC retention time is 0.47 min.

Consider `CCCCCCCCCCCCCC(=O)OCC(COP(=O)(O)OCCN)OC(=O)CCCCCCCCCCCCC` (stereo unspecified) [1,2-Dimyristoyl-sn-glycero-3-phosphoethanolamine], for which the LC retention time was found to be 2.44 min.

For `NC12CC3CC(CC(C3)C1)C2` [1-Aminoadamantane], the LC retention time came out at 2.36 min.

`O=c1[nH]cnc2c1ncn2C1CC(O)C(CO)O1` (stereo unspecified) [Deoxyinosine]: the LC retention time amounted to 2.64 min.

As for `CC1OC(OC2C(Oc3cc(O)c4c(c3)OC(c3ccc(O)cc3)CC4=O)OC(CO)C(O)C2O)C(O)C(O)C1O` (stereo unspecified) [Naringin], the LC retention time is 3.67 min.

In the case of `COc1ccccc1C=CC=O` [2-Methoxycinnamaldehyde], the LC retention time was 0.436 min.
